These results are taken from EP2253324A1, “Use of a casein-derived peptide and compositions thereof as antihypertensive” (CONSEJO SUPERIOR DE INVESTIGACIONES CIENTIFICAS, priority 2009, dated 2010).

Like-named read-outs stand apart in the source and are kept apart here. Where no end group is shown, it is not given here.

Broadly, the IC50 is the concentration that inhibits the measured activity by half.

The target of experiment [1] is T1, Angiotensin-converting enzyme (Oryctolagus cuniculus, UniProt P12822).
T1 sequence (P12822 34-1310): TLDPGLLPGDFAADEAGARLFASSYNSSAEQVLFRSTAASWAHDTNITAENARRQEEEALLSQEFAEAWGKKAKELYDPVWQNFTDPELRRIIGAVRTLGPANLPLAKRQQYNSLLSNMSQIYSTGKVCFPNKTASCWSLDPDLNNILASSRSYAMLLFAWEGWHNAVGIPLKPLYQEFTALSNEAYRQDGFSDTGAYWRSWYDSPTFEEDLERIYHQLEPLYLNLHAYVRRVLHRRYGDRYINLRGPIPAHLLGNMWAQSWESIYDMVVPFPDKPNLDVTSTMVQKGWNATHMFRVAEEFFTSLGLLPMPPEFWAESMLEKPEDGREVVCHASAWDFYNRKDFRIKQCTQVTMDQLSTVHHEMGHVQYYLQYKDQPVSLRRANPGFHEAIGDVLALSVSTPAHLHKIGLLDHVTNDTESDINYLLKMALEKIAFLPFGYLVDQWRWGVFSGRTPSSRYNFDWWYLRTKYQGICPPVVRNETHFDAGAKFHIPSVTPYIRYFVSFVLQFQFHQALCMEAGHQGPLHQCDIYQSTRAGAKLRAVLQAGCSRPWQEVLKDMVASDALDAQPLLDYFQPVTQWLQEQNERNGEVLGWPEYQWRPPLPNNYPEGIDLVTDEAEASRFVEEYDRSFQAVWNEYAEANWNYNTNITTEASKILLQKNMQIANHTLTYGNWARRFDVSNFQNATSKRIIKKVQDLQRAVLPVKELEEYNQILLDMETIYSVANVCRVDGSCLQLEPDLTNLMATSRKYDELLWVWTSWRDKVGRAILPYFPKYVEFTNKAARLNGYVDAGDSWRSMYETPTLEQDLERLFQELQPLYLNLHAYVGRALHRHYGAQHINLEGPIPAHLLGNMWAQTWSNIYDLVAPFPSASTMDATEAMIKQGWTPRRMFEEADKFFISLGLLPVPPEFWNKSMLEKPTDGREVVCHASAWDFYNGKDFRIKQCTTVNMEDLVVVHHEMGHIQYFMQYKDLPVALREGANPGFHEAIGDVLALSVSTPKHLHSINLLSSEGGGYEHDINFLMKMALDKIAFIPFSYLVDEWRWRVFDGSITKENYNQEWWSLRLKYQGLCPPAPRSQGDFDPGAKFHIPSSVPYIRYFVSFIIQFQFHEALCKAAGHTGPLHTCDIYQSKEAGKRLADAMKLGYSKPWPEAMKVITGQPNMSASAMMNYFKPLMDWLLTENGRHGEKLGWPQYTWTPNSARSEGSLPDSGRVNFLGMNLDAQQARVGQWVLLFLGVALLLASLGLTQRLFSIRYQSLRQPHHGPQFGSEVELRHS
Kind of experiment: ACE-inhibitory activity, spectrophotometric assay (Cushman & Cheung, modified). The experiment is classed as biochemical. Particulars: synthetic peptides. How it is done: ACE-inhibitory activity was measured by Cushman & Cheung 1971 (Biochemical Pharmacology, 20, 1637-1648) spectrophotometric assay with some modifications, as reported by (Quirós et al., 2007). For this purpose, protein concentration of the aliquots of the pepsin hydrolysate was determined by the Kjeldahl method. The protein content of the fractions collected from HPLC was estimated by the bicinchoninic acid assay (Pierce, Rockford, IL, USA) using bovine serum albumin, as standard, and peptide concentration of the chemically synthesized peptides was based in the dry weight of the peptides. Chemical synthesized peptides were purchased from GenScript Corp. (Piscataway, NJ, USA).

Experiment [2] has as its system SHR rats. The experiment is described as follows: Systolic blood pressure in spontaneously hypertensive rats, tail-cuff method. The format is in vivo. Conditions: single oral dose 5 mg kg^-1, followed up to 24 hours. How it is done: All procedures were carried out in accordance with conventional guidelines for experimentation with animals. Twelve-week old male SHR rats were used (Janvier, France); they were housed in groups of four per cage in a regulated environment with a 12 h light/dark cycle in a standard experimental laboratory of the Animal Experimentation Service of the Salamanca University (N°PAE SA001). The animals were deprived of solid diet 12 hours before experiments began but received a nutritive solution of 8% sucrose in 0.2% NaCl to avoid excessive dehydratation. The rats received a single dose of the synthesized peptides or zofenopril (5 mg kg^-1) dissolved in ultrapure water and the control group received the same volume of water. Systolic blood pressure (SBP) was measured in awake rats with an automated multichannel system, using the tail-cuff method with a photoelectric sensor (Niprem 546, Cibertec SA, Spain) as described in Guerrero et al., 2003 (Journal of Cardiovascular Pharmacology 42: 348-355). SBP was measured before administration, and also at 2, 4, 6, 8, 10 and 24 hours post-administration. The changes in SBP were expressed as the differences before and after administration of the different products. Unpaired student's t-test was used to compare groups.

Experiment [3] deals with ACE (Homo sapiens, UniProt P12821). Conditions: cited from earlier work; for IC50: literature values; for ACE-inhibitory activity: literature, in vitro.
ACE, sequence (P12821 30-1306, species assumed): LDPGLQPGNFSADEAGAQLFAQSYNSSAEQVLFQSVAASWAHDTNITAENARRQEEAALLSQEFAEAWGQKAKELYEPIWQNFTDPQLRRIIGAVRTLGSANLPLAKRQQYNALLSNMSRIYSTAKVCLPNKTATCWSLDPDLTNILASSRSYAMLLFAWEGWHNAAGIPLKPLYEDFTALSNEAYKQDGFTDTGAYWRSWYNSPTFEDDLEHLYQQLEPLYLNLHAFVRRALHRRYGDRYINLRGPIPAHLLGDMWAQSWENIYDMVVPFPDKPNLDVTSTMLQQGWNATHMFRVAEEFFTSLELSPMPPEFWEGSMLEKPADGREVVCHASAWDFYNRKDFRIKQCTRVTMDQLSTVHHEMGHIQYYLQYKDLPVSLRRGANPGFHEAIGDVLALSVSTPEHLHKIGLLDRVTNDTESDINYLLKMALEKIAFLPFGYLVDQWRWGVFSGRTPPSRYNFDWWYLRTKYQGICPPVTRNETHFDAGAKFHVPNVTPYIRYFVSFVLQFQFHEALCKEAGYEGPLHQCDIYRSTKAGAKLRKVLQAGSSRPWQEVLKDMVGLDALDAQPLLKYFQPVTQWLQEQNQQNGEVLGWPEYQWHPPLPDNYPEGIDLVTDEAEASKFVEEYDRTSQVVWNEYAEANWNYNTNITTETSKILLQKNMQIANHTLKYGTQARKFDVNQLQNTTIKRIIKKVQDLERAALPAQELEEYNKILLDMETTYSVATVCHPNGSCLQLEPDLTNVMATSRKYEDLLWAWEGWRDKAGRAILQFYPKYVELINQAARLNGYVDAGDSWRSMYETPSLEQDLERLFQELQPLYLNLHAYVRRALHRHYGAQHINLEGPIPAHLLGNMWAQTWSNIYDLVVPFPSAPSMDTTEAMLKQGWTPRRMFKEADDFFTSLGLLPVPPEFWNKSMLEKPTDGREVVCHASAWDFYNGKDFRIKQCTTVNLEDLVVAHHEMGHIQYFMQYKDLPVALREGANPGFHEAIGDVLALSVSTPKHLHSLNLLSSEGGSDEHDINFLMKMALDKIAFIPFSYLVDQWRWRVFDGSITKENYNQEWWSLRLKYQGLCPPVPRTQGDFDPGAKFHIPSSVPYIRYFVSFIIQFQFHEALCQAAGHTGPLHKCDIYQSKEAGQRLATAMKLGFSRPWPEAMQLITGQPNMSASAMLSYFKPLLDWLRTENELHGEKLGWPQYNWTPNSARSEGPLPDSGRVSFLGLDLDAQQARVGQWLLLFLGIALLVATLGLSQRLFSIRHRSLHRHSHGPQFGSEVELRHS
Experiment [4] relates to SHR. Conditions: literature; cited from earlier work.
Experiment [5] concerns human volunteers. Conditions: literature; cited from earlier work.
[6] abbreviates: mean ± standard error (n=3), read-out: IC50± SE.

As to AYFYPEL [AYFYPEL], the IC50 was 6.58 ± 0.5 µM in experiment [1] (setting [6]) and under 20 µM in experiment [1] (values in text, read-out: IC50).

On to FVAPFPEV [FVAPFPEV], for which the IC50 in experiment [1] (setting [6]) was found to be 476 ± 41.7 µM.

HLPLPLL [HLPLPLL]: the IC50 in experiment [1] (setting [6]) is 34.4 ± 2.22 µM.

For the substance RYLGY [RYLGY], the IC50 in experiment [1] (setting [6]) is 0.71 ± 0.08 µM; in experiment [1] (values in text, read-out: IC50), under 20 µM. In addition, the “antihypertensive effect (change in SBP), in words” value in experiment [2] is “lowered SBP in a progressive and maintained manner”.

“SEQ ID NO: 3: αs1-CN peptide previously described as an ACE inhibitor (DAYPSGAW)”: the IC50 in experiment [3] was 98 µM.

“SEQ ID NO: 5: ACE-inhibitory peptide previously described in the literature, shares five residues with SEQ ID NO: 4 (ENLLRF)”: the IC50 in experiment [3] was 82.4 µM.

For “SEQ ID NO: 7: literature ACE-inhibitory sequence included in peptide SEQ ID NO: 6 (VTSTAV)”, the IC50 in experiment [3] was 52 µM.

On to “SEQ ID O: 8: literature ACE-inhibitory peptide whose C-terminal tripeptide is LQY (FPQYLQY)”, for which the IC50 in experiment [3] was 14 µM.

In the case of VAPFPEVF [VAPFPEVF], the concentration for half-maximal inhibition (IC50) in experiment [1] (setting [6]) was 363 ± 23.6 µM.

For YQKFPQY [YQKFPQY], the IC50 in experiment [1] (setting [6]) was 20.1 ± 1.25 µM; in experiment [1] (values in text, read-out: IC50) it was under 20 µM.

Take “αs1-casein f(23-27): literature peptide with ACE-inhibitory activity but no hypotensive effect in SHR (FFVAP; UniProt P02662 38-42, looked up, fragment)”: the ACE-inhibitory activity entry in experiment [3] is reported as “potent ACE-inhibitory activity”. The “hypotensive effect in SHR” value in experiment [4] is “no hypotensive effect”.

Regarding “β-lactoglobulin f(142-148): literature peptide with in vitro ACE-inhibitory activity (ALPMHIR; UniProt P02754 158-164, looked up, fragment)”, in experiment [3], the ACE-inhibitory activity entry was “in vitro ACE-inhibitory activity”. For the same substance, in experiment [5], the “effect in human volunteers” value is listed as “did not have effect”.
